Experimental data published in US20250275995A1, “NICOTINAMIDE RIBOSIDE DOSAGE REGIMEN FOR TREATING PARKINSON'S DISEASE” (VESTLANDETS INNOVASJONSSELSKAP AS (VIS), priority 2022, published 2025).

Tests used:
[1] = test system: cerebral metabolic activity; experiment: NADPARK: FDG-PET, NR-related metabolic pattern (NRRP); assay type: in vivo, human
Description: This novel NR-related metabolic pattern (NRRP) was characterized by multiple regional metabolic changes, including bilateral metabolic reductions in the caudate and putamen, extending into the adjacent globus pallidus, and in the thalamus (FIG. 1D-E). […] The NRRP expression can be derived from the FDG-PET data, as previously described (Cell Metab. 2022 Mar. 1; 34(3):396-407.e6). For example, a NR-related metabolic pattern (NRRP) can be identified by using ordinal trends/canonical variates analysis (OrT/CVA), a supervised form of principal component analysis (PCA) (Habeck et al., (2005), Neural Computation 17, 1602-1645). […] Likewise, the reliability of the voxel loadings (i.e., region weights) on the resulting network topography can be assessed using bootstrap resampling procedures (Habeck and Stern (2010), Cell Biochemistry and Biophysics 58, 53-67; Mure et al. (2011), Neuroimage 54, 1244-1253). The analysis can be restricted to the top PC patterns, accounting for greater than 75% of the subject×voxel variance in the longitudinal data. Expression values for these PCs can then be entered singly and in all possible linear combinations to identify significant monotonic trends in the individual subject data, i.e., consistent increases (or decreases) in pattern expression across the subjects with few if any violations (p<0.05; permutation test, 1000 iterations). The resulting coefficients are applied to the corresponding PC patterns to construct the NR-related topography. […] The analysis can be performed within a population or the individual subject's gray matter brain mask defined by the FDG-PET scans, e.g., as outlined in Table 1.

[2] = test system: NAD metabolome; experiment: NR-SAFE: LC-MS metabolomics of whole blood and urine; assay type: in vivo, human
Experimental: Sample analysis was carried out by MS-Omics (Vedbok, Denmark) as follows: Polar metabolite profiling of whole blood and urine was performed using a Thermo Scientific Vanquish LC coupled to Thermo Q Exactive HF MS. An electrospray ionization interface was used as ionization source. Analysis was performed in negative and positive ionization mode. The UPLC was performed using a slightly modified version of the protocol described by Hsiao et al. 2018^14. Peak areas were extracted using Compound Discoverer 3.3 (Thermo Scientific). 14 Hsiao, J. J., Potter, O. G., Chu, T. W. & Yin, H. Improved LC/MS Methods for the Analysis of Metal-Sensitive Analytes Using Medronic Acid as a Mobile Phase Additive. Anal Chem 90, 9457-9464 (2018).
Semi-polar metabolite analysis of whole blood was carried out using a Thermo Scientific Vanquish LC coupled to Orbitrap Exploris 240 MS, Thermo Fisher Scientific. An electrospray ionization interface was used as ionization source. Analysis was performed in positive and negative ionization mode under polarity switching. The UPLC was performed using a slightly modified version of the protocol described by Doneanu et al., 2011^15. Peak areas were extracted using Compound Discoverer 3.3 (Thermo Scientific). 15 Doneanu, C. E. UPLC/MS Monitoring of Water-Soluble Vitamin Bs in Cell Culture Media in Minutes (Application note). https://www.waters.com/waters/library.htm?locale=en US&lid=134636355 (2011).
Identification of compounds for both methods was performed at four levels; Level 1: identification by retention times (compared against in-house authentic standards), accurate mass (with an accepted deviation of 3 ppm), and MS/MS spectra; Level 2a: identification by retention times (compared against in-house authentic standards), accurate mass (with an accepted deviation of 3 ppm). Level 2b: identification by accurate mass (with an accepted deviation of 3 ppm), and MS/MS spectra, Level 3: identification by accurate mass alone (with an accepted deviation of 3 ppm).

[3] = NR-SAFE: clinical laboratory values from blood samples (serum); assay type: in vivo, human
Experimental: Analysis of clinical laboratory values from blood samples was performed by the Department of Medical Biochemistry and Pharmacology (MBF) at Haukeland University Hospital, Bergen, Norway.

[4] = test system: adult humans; conditions: cited from earlier work
[5] = LC-MS, V1 to V7, 3000 mg NR daily
[6] = LC-MS, V1 to V7, NR group, 3000 mg NR daily

For NC(=O)c1ccc[n+]([C@@H]2O[C@H](CO)[C@@H](O)[C@H]2O)c1 [NR, nicotinamide riboside], the “effect size (ES) of NRRP expression increase vs placebo” value ([1]; 1000 mg NR) was 0.883, the “increase in NRRP expression (mean±SD)” value ([1]; 1000 mg NR, NR treatment group) was 0.68±0.86 and the “effect of NRRP expression change on PD cerebral metabolic pattern” value ([1]; NR group, 1000 mg daily, FDG-PET) was “partial normalization of the striatal and thalamic hypermetabolism”. For the same compound, the “urine NAD-related metabolites (NAR, Nam, Me-Nam, Me-2-PY, Nam N-oxide)” value [2, 5] was “increase in several NAD-related metabolites”, the “whole blood ADP-ribose (ADPR)” value [2, 5] was “increase in NAD-derived signaling molecules such as ADP-ribose (ADPR)” and the “whole blood ATP, GTP, ADP, AMP, adenosine and GDP” value [2, 5] was “unchanged”. The “whole blood Nam, Nam N-oxide, Me-Nam, Me-2-PY” value [2, 5] was “increased as well”, the “whole blood nicotinamide mononucleotide (NMN)” value [2, 5] was “elevated levels” and the “whole blood nicotinic acid adenine dinucleotide (NAAD)” value [2, 5] was “elevated”. The “NR itself in urine” value [2, 6] was “did not change significantly”, the “NR itself in whole blood” value [2, 6] was “did not increase” and the “whole blood HCy, SAM, SAH, SAM/SAH ratio, methionine” value ([2]; LC-MS, V1 vs V7, 3000 mg NR daily) was “did not detect a change”. For the same compound, the “depletion of the methyl-group pool” value ([2]; NR 3000 mg for 4 weeks) was “does not cause depletion of the methyl-group pool”, the “whole blood NAD^+ and NADP^+ levels” value ([2]; targeted LC-MS, V1 to V7, 3000 mg NR daily) was “significant increase in whole blood NAD^+ and NADP^+ levels” and the “whole blood homocysteine (HCy)” value ([2]; targeted metabolomics, V1 vs V7, 3000 mg NR daily) was “did not show any HCy elevation”. For the same compound, the “whole blood methionine levels” value ([2]; untargeted metabolomics, 3000 mg NR daily) was “unaffected”, the whole blood betaine ([2]; untargeted metabolomics, NR group, 3000 mg NR daily) was “decreased slightly” and the “clinical symptoms related to the observed HCy increase” value ([3]; NR 3000 mg daily, 4 weeks) was “No participants developed any clinical symptoms”. The “increase in triglycerides, total cholesterol and LDL” value ([3]; NR 3000 mg daily, 4 weeks) was “no such effects”, the “serum folic acid, methylmalonic acid and vitamin B12” value ([3]; NR 3000 mg daily, 4 weeks) was “remained unchanged” and the serum triglyceride levels ([3]; NR group, 3000 mg daily, 4 weeks) was “nominal trend for a reduction in serum triglyceride levels”. For the same compound, the “change in serum HCy at second visit” value ([3]; V2, day 3 of treatment, vs baseline, NR 3000 mg daily) was “+2.29±1.72 μmol/L”, the “change in serum HCy after second visit until end of study” value ([3]; V2 to V7, NR 3000 mg daily) was -0.63 ± 1.76 µmol/L and the “serum HCy levels relative to normal range” value ([3]; most participants, NR 3000 mg daily) was “remained within normal range”. For the same compound, the “change in serum homocysteine levels, last visit vs baseline” value ([3]; Δ V7−V1, NR 3000 mg daily) was “+1.66±0.63 μmol/L”, the “triglycerides, total cholesterol and LDL” value ([4]; NR at lower doses, e.g., in combination with pterostilbene) was “mild increase in triglycerides, total cholesterol and LDL” and the “tolerability in adult humans” value ([4]; doses up to at least 2000 mg daily) was “well tolerated with no evidence of toxicity”.
